Measurements from patent US9132099B2, “Medical implants and methods for regulating the tissue response to vascular closure devices” (Vascular Therapies LLC, priority 2001, dated 2015).
Starred links: 1 amine or outer side, 2 acyl side, 3 side chain; linkers in the order of their positions; H or OH if unused. Positions of bridges follow the written chain, without caps; N, C: chain ends. Non-standard residues stand in square brackets, D forms with d. Residues, ends and D or L forms follow the SMILES beside them. Chains are numbered I, II in the order given. Actinocin(9to1) = Cc1c2oc3c(C)ccc(C(=O)[*:1])c3nc-2c(C(=O)[*:2])c(N)c1=O; NMeV = CN[C@H](C(=O)O)C(C)C; Sar = CNCC(=O)O

Columns and labels:
Fibroblast = Fibroblast inhibition on drug-saturated collagen matrix discs; type: cell-based; details: collagen matrix disc, compound about 5 μg/cm^2, cells counted five days later
Description: (§1) Prefabricated collagen matrices were placed in different antiproliferative drug solutions until complete saturation occurred. […] The collagen matrices were saturated with these compounds at a concentration of 25 μg/ml lyophilized, washed with 0.066 M phosphate buffer of pH 7.4 at 37° C. for 24 hours and cut in the shape of a disc with density of compound of about 5 μg/cm^2. After washing, sterile discs 15 mm in diameter were placed in a 24-well culture plate, and cells were seeded at a density of 5,000/cm^2. Five days later, cell number was counted and enzymatic activity evaluated in the aliquots of media by chromogenic substrate hydrolysis and spectrophotometry.

SMC = experiment: Smooth muscle cell inhibition on drug-saturated collagen matrix discs; type: cell-based; details: collagen matrix disc, compound about 5 μg/cm^2, cells counted five days later
Description: as §1

Human Endothelial Cells = experiment: [3H]-thymidine uptake assay, human endothelial cells; type: cell-based
Description: (§2) Human smooth muscle cells and endothelial cells (Cambrex Corp., formerly Clonetics Corp., East Rutherford, N.J.) were seeded (100,000 cells) in 24-well plates overnight. Both cell types were grown and maintained in Opti-MEM (Invitrogen, Carlsbad, Calif.) and 5% fetal bovine serum at 37° C. in a 5% carbon dioxide and 95% atmospheric air. […] Each cell type was allowed to grow for […], last four hours in the presence of [^3H]-thymidine.
(§3) Proliferation of cells was quantified as new DNA synthesis using [^3H]-thymidine uptake assay. After 72 hours of culture, cells were washed twice with cold phosphate buffered saline (PBS), and 1 ml of methanol was added to the contents of each well. The plates were kept at 4° C. for 60 minutes, the cells then washed once with cold PBS, and 500 μl of 0.2 m M NaOH was added to each well, and the plates kept at 4° C. for 30 minutes. The contents of each well were transferred into scintillation vials, and liquid scintillation fluid was added to quantify radioactivity using a liquid scintillation counter and the results expressed as counts per minute. Results are shown in Tables 12 and 13 and corresponding FIGS. 16 and 17, respectively.

[1] = system: PTFE A-V graft, venous anastamosis; experiment: PTFE A-V graft study, histological scoring of graft explants; type: in vivo
Description: A 6.0 mm PTFE graft was anastamosed between the carotid artery and the jugular vein. A total of 19 animals were utilized for this study. At the time of surgical construction of the A-V graft, collagen matrix with or without the drug was implanted at the site of venous anastamosis. Five animals served as controls (Group A, plain collagen matrix, no drug); the remaining 14 animals received treatment. They were divided into two equal groups (B and C) of seven animals each. […] Animals (n=13) were euthanized after 1 month. Tissues were formalin fixed and sent for histology.
Histological assessment of graft explants was performed by examining the following components: (1) the venous anastamotic site; (a) luminal and (b) adventitial surfaces, (2) the venous end away from the anastamosis; (c) luminal and (d) adventitial surfaces and (3) the PTFE graft; (e) luminal and (f) abluminal surfaces away from the anastamosis (FIG. 2). The following parameters were evaluated: intimal thickening, inflammation, thrombus, fibrosis, hemorrhage/fibrin and calcification or any other pathological changes observed. Histological evaluation was scored on a 0 through 4 scale, where 0=no significant change, 1=minimal, 2=mild, 3=moderate and 4=severe.
P-values obtained from semiquantitative analysis of histological findings using ANOVA (t-test unpaired).

Collagenase = Collagenase activity in culture media, chromogenic substrate hydrolysis; type: biochemical; details: aliquots of media, five days, plain matrix = 100
Description: as §1, with “spectrophotometry. Among the tested agents in this comparative in vitro test, paclitaxel and rapamycin (sirolimus) performed similarly.” for “spectrophotometry.”

[2] = Rate of drug release from collagen matrix in vitro, batch assay; type: physicochemical; details: collagen matrix saturated with the drug
Description: Aliquots are collected at various time intervals from the wells. A combination of dispersed and conjugated forms is also prepared. […] The samples are placed in wells and 1 ml of elution media containing serum are added. Aliquots are taken every hour.
These measurements are made using batch assay and, therefore, represent release rates at 0 ml/min flow rate. The results are tabulated in Table 7 and graphically illustrated in FIG. 14. Concentrations of the antiproliferative drug are in μg/ml.

[3] = system: PTFE vascular graft AV loop, venous anastomosis; experiment: Porcine PTFE arterio-venous graft model with perivascular rapamycin collagen sleeve; type: in vivo; details: pigs
Description: A proof of principle study was performed using a porcine model. A total of six pigs were studied, two as controls and four as treated. A 6 mm PTFE vascular graft was anastomosed between the carotid artery on one side and the contralateral jugular vein. This created an arterio-venous (AV) loop that is similar in construction to the human hemodialysis access loop.
The animals were euthanized and the relevant segments dissected. […] Tissues from treated and untreated animals were obtained, and RNA was prepared and reverse transcribed to cDNA, which was amplified for housekeeping gene b-actin and p21 by PCR.

[4] = system: Human Smooth Muscle Cells; experiment: [3H]-thymidine uptake assay, human smooth muscle cells; type: cell-based
Description: as §2, §3

smooth muscle cells = experiment: Growth of smooth muscle cells seeded on collagen matrices; type: cell-based; details: with changes of media, 7 days observation
Description: To evaluate this parameter, smooth muscle cells at a density of 5,000 cells/cm^2 are seeded onto control tissue culture surface and testing matrices.

smooth muscle cell [5] = experiment: Inhibitory concentrations for smooth muscle cell in culture media
[6] = In vitro elution of dexamethasone from collagen matrix; details: by HPLC
smooth muscle cell [7] = experiment: Heparin inhibition of smooth muscle cell proliferation; type: cell-based
Description: In addition, diffusion of heparin from the sleeve can prevent thrombotic events on the inner surface of the shunt and damaged vessel wall for longer periods of time. Furthermore, the concentration of soluble heparin can be increased up to 20,000 U/cm^2 without changing the mechanical characteristics of the matrix. Therefore, anti-smooth muscle cell proliferation as well as antithrombotic effect can be prolonged.

[8] = In vitro elution of heparin from collagen-fibrin sleeve with rapamycin and heparin; type: physicochemical; details: for Eluted Heparin Mass: buffer replenished each day
Description: Combining macro- and micro-porosity may increase capacity of the device. Collagen and fibrin matrices were mixed to obtain such a combination. In addition, good mechanical characteristics of collagen improved stability of fibrin.
The collagen fibrin sheaths loaded with medicine (thickness 2 mm) were formed as tubular structures and externally crosslinked using high a concentration of glutaraldehyde (25%) for one minute. This sleeve was made planar on ten occasions, and the spiral shape was restored each time. […] In vitro elution of heparin continues for seven days. Heparin concentration was measured as in Example 10. Buffer for the dilution was replenished each day.

Elastase = Elastase activity in culture media, chromogenic substrate hydrolysis; type: biochemical; details: aliquots of media, five days, plain matrix = 100
Description: as §1

Molecule | Fibroblast Inhibition % (Fibroblast) [%] | SMC Inhibition % (SMC) [%] | effect on proliferation (new DNA synthesis) (Human Endothelial Cells) | Collagenase Activity % (Collagenase) [%] | effect on proliferation (new DNA synthesis) [4] | Elastase Activity % (Elastase) [%] | other results
CN(C)[C@@H]1C(O)=C(C(N)=O)C(=O)[C@@]2(O)C(O)=C3C(=O)c4c(O)cccc4[C@@](C)(O)[C@H]3C[C@@H]12 [Tetracycline] | 13 ± 5 | 11 ± 8 | – | – | – | – | –
CO[C@H]1C[C@@H]2CC[C@@H](C)[C@@](O)(O2)C(=O)C(=O)N2CCCC[C@H]2C(=O)O[C@H]([C@H](C)C[C@@H]2CC[C@@H](O)[C@H](OC)C2)CC(=O)[C@H](C)/C=C(\C)[C@@H](O)[C@@H](OC)C(=O)[C@H](C)C[C@H](C)/C=C/C=C/C=C/1C [Rapamycin, (3S,6R,7E,9R,10R,12R,14S,15E,17E,19E,21S,23S,26R,27R,34aS)-9,10,12,13,14,21,22,23,24,25,26,27,32,33,34,34a-hexadecahydro-9,27-dihydroxy-3-[(1R)-2[(1S,3R,4R)-4-hydroxy-3-methoxycyclohexyl]-1-methylethyl]10,21-dimethoxy-6,8,12,14,20,26-hexamethyl-23,27-epoxy-3H-pyrido[2,1-c][1,4] oxaazacyclohentriacontine-1,5,11,28,29 (4H,6H,31H)-pentone] | 90 ± 12 | 94 ± 5 | inhibit proliferation | 137 ± 8 | inhibit proliferation | – | Collagen degradation ([1]; Dose 2 compared with the control group): significant; degree of fibrosis ([1]; control group vs. treatment groups): significant difference; degree of inflammation ([1]; treated vs controls): no statistical difference; time of peak release from saturated collagen matrix [2]: about seven; Expression of p21 mRNA in venous tissue at the perianastamotic site ([3]; 30 days, PCR, not in controls): observed; neointimal hyperplasia at venous anastomosis ([3]; collagen sleeve approximately 500 μg/cm^2, 30 days): minimal to absent; luminal patency of the vein and the graft ([3]; collagen sleeve approximately 500 μg/cm^2, 30 days, vs controls): significantly higher luminal patency; duration of suppression of cell growth (smooth muscle cells): suppression of cell growth continued throughout the observation period; Inhibitory concentrations for smooth muscle cell (smooth muscle cell [5]): 0.001 to 0.005 µg/mL
C=CC[C@@H]1/C=C(\C)C[C@H](C)C[C@H](OC)[C@H]2O[C@@](O)(C(=O)C(=O)N3CCCC[C@H]3C(=O)O[C@H](/C(C)=C/[C@@H]3CC[C@@H](O)[C@H](OC)C3)[C@H](C)[C@@H](O)CC1=O)[C@H](C)C[C@@H]2OC [Tacrolimus] | – | – | sparing endothelial cells | – | preferentially inhibit new DNA synthesis in human smooth muscle cells | – | –
C[C@@H]1C[C@H]2[C@@H]3CCC4=CC(=O)C=C[C@]4(C)[C@@]3(F)[C@@H](O)C[C@]2(C)[C@@]1(O)C(=O)CO [Dexamethasone] | – | – | – | – | – | – | Chemical stability through sheet formation, drying storage, and elution process [6]: confirmed
Heparin | – | – | – | – | – | – | concentration that effectively inhibits smooth muscle cell proliferation (smooth muscle cell [7]): about 100 u/ml; duration of in vitro elution of heparin [8]: seven; Eluted Heparin Mass ([8]; Time 0 days): 0 u/ml; Eluted Heparin Mass ([8]; Time 1 days): 341 u/ml; Eluted Heparin Mass ([8]; Time 2 days): 275 u/ml; Eluted Heparin Mass ([8]; Time 3 days): 188 u/ml; Eluted Heparin Mass ([8]; Time 4 days): 103 u/ml; Eluted Heparin Mass ([8]; Time 5 days): 57 u/ml; Eluted Heparin Mass ([8]; Time 6 days): 24 u/ml; Eluted Heparin Mass ([8]; Time 7 days): 8 u/ml; time for which eluted heparin can significantly inhibit smooth muscle cell proliferation ([8]; from the elution profile and about 100 u/ml): at least four
Cc1c2oc3c(C)ccc(C(=O)N[C@@H]4C(=O)N[C@H](C(C)C)C(=O)N5CCC[C@H]5C(=O)N(C)CC(=O)N(C)[C@@H](C(C)C)C(=O)O[C@@H]4C)c3nc-2c(C(=O)N[C@@H]2C(=O)N[C@H](C(C)C)C(=O)N3CCC[C@H]3C(=O)N(C)CC(=O)N(C)[C@@H](C(C)C)C(=O)O[C@@H]2C)c(N)c1=O [Actinomycin D] (I: T[dV]P[Sar][NMeV] / II: T[dV]P[Sar][NMeV]; ester I:1-I:C, II:1-II:C; linker I:N-II:N via Actinocin(9to1)) | 35 ± 8 | 44 ± 11 | – | 55 ± 9 | – | 84 ± 11 | duration of suppression of cell growth (smooth muscle cells): suppresses cell growth for only a short period of time
CN(Cc1cnc2nc(N)nc(N)c2n1)c1ccc(C(=O)N[C@@H](CCC(=O)O)C(=O)O)cc1 [Methotrexate] | 28 ± 6 | 32 ± 9 | – | 23 ± 12 | – | 14 ± 3 | –
CC(=O)O[C@H]1C(=O)[C@@]2(C)[C@H]([C@H](OC(=O)c3ccccc3)[C@]3(O)C[C@H](OC(=O)[C@H](O)[C@@H](NC(=O)c4ccccc4)c4ccccc4)C(C)=C1C3(C)C)[C@]1(OC(C)=O)CO[C@@H]1C[C@@H]2O [Paclitaxel] | 62 ± 11 | 88 ± 6 | inhibit proliferation | 98 ± 5 | inhibit proliferation | 90 ± 4 | –
